In patent US9255072B2, “Pyrazole compounds and thiazole compounds as protein kinases inhibitors” (National Health Rsearch Institutes, priority 2011, dated 2016):

Test system: MOLM-13 cell
Test: MTS cell viability assay
Type: cell-based
Settings: Homo sapiens, MOLM-13, 72 h, table of representative values
Source text: The leukemias cell lines MOLM-13, MV4:11, RSV4:11, MOLT-4, U937, and K562 were purchased from American Type Culture Collection (ATCC, Manassas, Va., USA). The non-leukemias cell lines HCC827, H1975, NCIH460, A431, Huh7, SF268, MCF-7, HCT-116, and normal human fetal fibroblast cell line Detriot 551 were purchased from American Type Culture Collection (ATCC, Manassas, Va., USA). All leukemias cell lines and HCC827, H1975, NCIH460, A431 were maintained in RPMI 1640 medium supplemented with 10% fetal bovine serum (FBS), 10 U/ml penicillin, and 10 µg/ml streptomycin at 37° C. and 5% CO2. The cell lines Huh7, SF268, MCF-7, and Detroit 551 were cultured in DMEM medium supplemented with 10% FBS, 0.01% nonessential amino acids, 10 U/ml penicillin, and 10 µg/ml streptomycin. HCT-116 were cultured in McCoy's 5A medium supplemented with 10% FBS, 0.01% nonessential amino acids, 10 U/ml penicillin, and 10 µg/ml streptomycin. To determine cell viability after drug treatment, assays were performed by seeding 10,000 cells (leukemias cell lines) or 2,500 cells (non-leukemias cell lines) per well in a 96-well culture plate. After 16 h, cells were then treated with vehicle or various concentrations of compound in medium for 72 h. Viable cells were quantitated using the MTS method (Promega, Madison, Wis., USA) according to the manufacturer's recommended protocol. The results were determined by measuring the absorbance at 490 nm using a plate reader (Victor2; PerkinElmer, Shelton, Conn., USA).

GI50 | Structure (SMILES)
2 nM | CCc1cc(NC(=O)Nc2ccc(-c3cnc(Nc4cc(N5CCN(CC)CC5)nc(C)n4)s3)cc2)no1 [Compound 112, N-(5-ethyl-3-isoxazolyl)-N′-[4-(2-[6-(4-ethylpiperazino)-2-methyl-4-pyrimidinyl]amino-1,3-thiazol-5-yl)phenyl]urea]
3 nM | CCc1cc(NC(=O)Nc2ccc(-c3cnc(Nc4cc(N5CCC(N)C5)nc(C)n4)s3)cc2)no1 (centres unmarked) [Compound 119, N-[4-(2-[6-(3-aminotetrahydro-1H-1-pyrrolyl)-2-methyl-4-pyrimidinyl]amino-1,3-thiazol-5-yl)phenyl]N′-(5-ethyl-3-isoxazolyl)urea]
